Laboratory results from patent US20150094328A1, “4-Azaindole Derivatives” (Eisai R&D Management Co., Ltd., priority 2013, published 2015).

Each compound was assayed against T1, mAChR M1 (UniProt P11229) (assay: In vitro cellular calcium flux assay, positive allosteric modulator mode, mAChR M1). Settings: PAM mode with EC20 carbachol, BHK cells expressing mAChR M1, Examples 76-80 and 82-89 tested in slightly modified procedure.
T1 sequence (P11229 1-460): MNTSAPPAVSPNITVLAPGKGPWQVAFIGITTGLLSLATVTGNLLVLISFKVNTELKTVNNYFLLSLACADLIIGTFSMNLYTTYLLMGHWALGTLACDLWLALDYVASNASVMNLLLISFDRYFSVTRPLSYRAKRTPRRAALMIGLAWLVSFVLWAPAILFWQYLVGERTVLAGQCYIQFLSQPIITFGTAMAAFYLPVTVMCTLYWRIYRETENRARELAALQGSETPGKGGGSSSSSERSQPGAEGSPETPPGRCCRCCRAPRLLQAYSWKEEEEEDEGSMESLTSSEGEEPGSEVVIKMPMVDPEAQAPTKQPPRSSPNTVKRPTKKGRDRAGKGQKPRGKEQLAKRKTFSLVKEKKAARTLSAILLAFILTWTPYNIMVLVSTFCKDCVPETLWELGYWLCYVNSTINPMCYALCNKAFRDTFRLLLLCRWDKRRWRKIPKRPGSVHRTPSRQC
Assay type: cell-based, human
Procedure: Baby hamster kidney cells stably expressing human or rat mAChR M1 to M5 were utilised for primary and selectivity profiling activities. mAChR M2 and M4 cell lines also stably expressed the chimeric Gαqi5 G-protein.
Human mAChR M1, M3, M5 and rat M1 cells were grown in low glucose Dulbecco's Modified Eagle's Medium (DMEM) medium plus heat inactivated 10% fetal bovine serum (HI FBS) and 500 μg/ml hygromycin B^1. Human mAChR M2 and M4 cells were maintained as above with^2 the addition of 500 μg/ml G418 to the media. Cells were maintained in culture at 37° C./5% CO2 and passaged twice weekly by treatment with 0.05% Trypsin/EDTA detachment solution, centrifugation (200 g, 5 min) and re-suspension in fresh media. Following cell expansion, cells were cryopreserved at −80° C. by treatment with 0.05% Trypsin/EDTA detachment solution, centrifugation (200 g, 5 min) and re-suspension of the pellet in freezing media (90% HI FBS/10% DMSO^3) at 15E6 cells/ml^4.
Prior to assaying, cells were prepared by thawing at 37° C. in a water bath, centrifugation (200 g, 5 min) and re-suspension of the pellet in fresh media. 15000 cells per well were seeded in black, clear bottomed 384-well Greiner Bio-One plates in plating medium (DMEM/10% HI FBS) and incubated overnight at 37C/5% CO2.
On the day of the assay, media was removed from each well and replaced with 500 assay buffer (HBSS with 20 mM HEPES and 2.5 mM Probenecid) containing the calcium indicator, Calcium 4 (Molecular Devices). Cells were then incubated at 37° C./5% CO2 for 30 min and at room temperature.
Compound preparation was carried out by generation of 11-point, 1 in 3 serial dilution concentration response curves in 100% DMSO. Compound was then diluted 1 in 65^6 with assay buffer (HBSS with 20 mM HEPES and 2.5 mM Probenecid) prior to the addition of 10 ul^7 to the cells using a Tetra fluorometric imaging plate reader (Molecular Devices)^8. Compound driven increases in intracellular calcium flux was measured as an increase in fluorescence (494Ex, 516Em)^9.
Following agonist data acquisition, cells were then incubated for a further 30 min at room temperature before either an EC20 concentration (to measure positive allosteric modulator activity) or an EC80 concentration (to measure antagonism) of carbachol was added using a fluorometric imaging plate reader. Positive allosteric modulator pEC50 values and antagonist pIC50 values for each compound were then determined. […] Data analysis was carried out using a 4 parameter logistic nonlinear regression model with the XLFIT (IDBS) excel add-in^10.
^1-10Examples 76-80 and 82-89 were tested in a slightly modified procedure. The points of modification and the alternate reagents, concentrations or equipment employed in these examples were: ^1200 μg/ml hygromycin B; ^2G418 not added; ^3CELLBANKER 1; ^410E6; ^540 μl; ^61 in 99; ^720 μl; ^8FDSS6000 (Hamamatsu Photonics); ^9(480Ex, 540Em); 10Spotfire (TIBCO).

| SMILES | pEC50 for positive allosteric modulation |
| --- | --- |
| O=C(N[C@H]1CCCC[C@@H]1CO)c1cn(Cc2ccc(F)cc2)c2cccnc12 (racemic) [Example 18, 1-(4-Fluorobenzyl)-N-(trans-2-(hydroxymethyl)cyclohexyl)-1H-pyrrolo[3,2-b]pyridine-3-carboxamide] | 6.1 |
| C[C@H]1COCC[C@@H]1NC(=O)c1cn(Cc2ccc(F)cc2)c2cccnc12 (racemic) [Example 19, 1-(4-Fluorobenzyl)-N-(trans-3-methyltetrahydro-2H-pyran-4-yl)-1H-pyrrolo[3,2-b]pyridine-3-carboxamide] | 6.0 |
| C[C@H]1CCCC[C@@H]1NC(=O)c1cn(Cc2ccc(F)cc2)c2cccnc12 (racemic) [Example 20, 1-(4-Fluorobenzyl)-N-(trans-2-methylcyclohexyl)-1H-pyrrolo[3,2-b]pyridine-3-carboxamide] | 6.1 |
| O=C(N[C@H]1CCC[C@@H]1O)c1cn(Cc2ccc(F)cc2)c2cccnc12 (racemic) [Example 27, 1-(4-Fluorobenzyl)-N-(trans-2-hydroxycyclopentyl)-1H-pyrrolo[3,2-b]pyridine-3-carboxamide] | 6.1 |
| O=C(N[C@H]1CCCCC[C@@H]1O)c1cn(Cc2ccc(F)cc2)c2cccnc12 (racemic) [Example 28, 1-(4-Fluorobenzyl)-N-(trans-2-hydroxycycloheptyl)-1H-pyrrolo[3,2-b]pyridine-3-carboxamide] | 6.6 |
| O=C(N[C@@H]1CCCC[C@H]1O)c1cn(Cc2ccc(-c3ccc(F)cc3)cc2)c2cccnc12 (racemic) [Example 46, 1-((4′-Fluoro-[1,1′-biphenyl]-4-yl)methyl)-N-(trans-2-hydroxycyclohexyl)-1H-pyrrolo[3,2-b]pyridine-3-carboxamide] | 6.5 |
| O=C(NC1CCCOC1)c1cn(Cc2ccc(-n3cccn3)cc2)c2cccnc12 (racemic) [Example 49, 1-(4-(1H-Pyrazol-1-yl)benzyl)-N-(tetrahydro-2H-pyran-3-yl)-1H-pyrrolo[3,2-b]pyridine-3-carboxamide] | 5.6 |
| O=C(N[C@@H]1CCC(F)(F)C[C@H]1O)c1cn(Cc2ccc(F)cc2)c2cccnc12 (single isomer, unassigned) [Example 35, N-(trans-4,4-Difluoro-2-hydroxycyclohexyl)-1-(4-fluorobenzyl)-1H-pyrrolo[3,2-b]pyridine-3-carboxamide] | 6.1 |
| O=C(N[C@H]1CCC(F)(F)C[C@H]1O)c1cn(Cc2ccc(F)cc2)c2cccnc12 (single isomer, unassigned) [Example 36, N-(cis-4,4-Difluoro-2-hydroxycyclohexyl)-1-(4-fluorobenzyl)-1H-pyrrolo[3,2-b]pyridine-3-carboxamide] | 6.3 |
| Cc1ccnc2c(C(=O)N[C@H]3CCOC[C@@H]3O)cn(Cc3ccc(F)cc3)c12 (single isomer, unassigned) [Example 82, 1-(4-Fluorobenzyl)-N-(trans-3-hydroxytetrahydro-2H-pyran-4-yl)-7-methyl-1H-pyrrolo[3,2-b]pyridine-3-carboxamide] | 7.8 |
| COc1ccc(Cn2cc(C(=O)N[C@H]3CCOC[C@@H]3O)c3nccc(C)c32)cc1 (single isomer, unassigned) [Example 83, 1-(4-Methoxybenzyl)-N-(trans-3-hydroxytetrahydro-2H-pyran-4-yl)-7-methyl-1H-pyrrolo[3,2-b]pyridine-3-carboxamide] | 8.0 |
| COc1ccc(Cn2cc(C(=O)N[C@H]3CCOC[C@@H]3O)c3nccc(C)c32)cc1F (single isomer, unassigned) [Example 84, 1-(3-Fluoro-4-methoxybenzyl)-N-(trans-3-hydroxytetrahydro-2H-pyran-4-yl)-7-methyl-1H-pyrrolo[3,2-b]pyridine-3-carboxamide] | 7.9 |
| COc1cc(Cn2cc(C(=O)N[C@H]3CCOC[C@@H]3O)c3nccc(C)c32)ccn1 (single isomer, unassigned) [Example 85, N-(trans-3-Hydroxytetrahydro-2H-pyran-4-yl)-1-((2-methoxypyridin-4-yl)methyl)-7-methyl-1H-pyrrolo[3,2-b]pyridine-3-carboxamide] | 7.3 |
| O=C(N[C@@H]1CCOC[C@H]1O)c1cn(Cc2cccc(F)c2)c2c(Cl)ccnc12 (single isomer, unassigned) [Example 86, 7-Chloro-1-(3-fluorobenzyl)-N-(trans-3-hydroxytetrahydro-2H-pyran-4-yl)-1H-pyrrolo[3,2-b]pyridine-3-carboxamide] | 7.6 |
| COc1ccc(Cn2cc(C(=O)N[C@H]3CCOC[C@@H]3O)c3nccc(Cl)c32)cc1 (single isomer, unassigned) [Example 87, 7-Chloro-1-(4-methoxybenzyl)-N-(trans-3-hydroxytetrahydro-2H-pyran-4-yl)-1H-pyrrolo[3,2-b]pyridine-3-carboxamide] | 7.9 |
| N#Cc1ccnc2c(C(=O)N[C@H]3CCCC[C@@H]3O)cn(Cc3ccc(C(F)(F)F)cc3)c12 [Example 33, 7-Cyano-N-((1S,2S)-2-hydroxycyclohexyl)-1-(4-(trifluoromethyl)benzyl)-1H-pyrrolo[3,2-b]pyridine-3-carboxamide] | 7.0 |
| N#Cc1ccc2c(n1)c(C(=O)N[C@H]1CCCC[C@@H]1O)cn2Cc1ccc(-n2cccn2)cc1 [Example 41, 1-(4-(1H-Pyrazol-1-yl)benzyl)-5-cyano-N-((1S,2S)-2-hydroxycyclohexyl)-1H-pyrrolo[3,2-b]pyridine-3-carboxamide] | 6.5 |
| Cn1cnc(-c2ccc(Cn3cc(C(=O)N[C@H]4CCCC[C@@H]4O)c4ncccc43)cc2)c1 [Example 43, N-((1S,2S)-2-Hydroxycyclohexyl)-1-(4-(1-methyl-1H-imidazol-4-yl)benzyl)-1H-pyrrolo[3,2-b]pyridine-3-carboxamide] | 8.0 |
| N#Cc1ccc(Cn2cc(C(=O)N[C@H]3CCCC[C@@H]3O)c3nccc(Cl)c32)cn1 [Example 70, 7-Chloro-1-((6-cyanopyridin-3-yl)methyl)-N-((1S,2S)-2-hydroxycyclohexyl)-1H-pyrrolo[3,2-b]pyridine-3-carboxamide] | 7.0 |
| O=C(N[C@H]1CCCC[C@@H]1O)c1cn(Cc2ccc(F)c(F)c2)c2cccnc12 [Example 94, 1-(3,4-difluorobenzyl)-N-((1S,2S)-2-hydroxycyclohexyl)-1H-pyrrolo[3,2-b]pyridine-3-carboxamide] | 6.6 |
